Experimental data as given in ChEMBL document CHEMBL3046894, “Synthesis and Herbicidal Activity of Pyrimidinyl Salicylic and Thiosalicylic Acids” (J Pestic Sci, 1996).
Active and inactive are the calls of the source.

How the values were obtained:
Glycine max [1] = experiment: Post-emergence phytotoxicity against Glycine max (soybean) assessed as mortality at 1.6 g a.i/10 a applied 11 days after germination as foliar spray; format: organism-based; conditions: in vivo, other, 264 h
[2] = (§1) Post-emergence phytotoxicity against Gossypium hirsutum (cotton) assessed as mortality at 6.3 g a.i/10 a applied 11 days after germination as foliar spray; format: organism-based; conditions: in vivo, 6.3 g a.i/10 a
Xanthium strumarium [3] = experiment: Pre-emergence herbicidal activity against Xanthium strumarium (cocklebur) assessed as mortality per 10 acre; format: functional
Glycine max [4] = experiment: (§2) Pre-emergence phytotoxicity against Glycine max (soybean) assessed as mortality at 1.6 g a.i/10 a; format: organism-based; conditions: in vivo, other
Echinochloa crus-galli [5] = experiment: Post-emergence herbicidal activity against Echinochloa crus-galli (barnyard grass) assessed as mortality per 10 acre; format: functional
Ipomoea lacunosa [6] = experiment: Post-emergence herbicidal activity against Ipomoea lacunosa assessed as mortality per 10 acre; format: functional
Persicaria nodosa [7] = experiment: Pre-emergence herbicidal activity against Persicaria nodosa assessed as mortality per 10 acre; format: functional
Gossypium hirsutum [8] = experiment: (§3) Pre-emergence phytotoxicity against Gossypium hirsutum (cotton) assessed as mortality at 6.3 g a.i/10 a; format: organism-based; conditions: in vivo, other
Glycine max [9] = experiment: Post-emergence phytotoxicity against Glycine max (soybean) assessed as mortality at 6.3 g a.i/10 a applied 11 days after germination as foliar spray; format: organism-based; conditions: in vivo, other, 264 h
Gossypium hirsutum [10] = experiment: Pre-emergence phytotoxicity against Gossypium hirsutum (cotton) assessed as mortality at 1.6 g a.i/10 a; format: organism-based; conditions: in vivo, other
Gossypium hirsutum [11] = experiment: Post-emergence phytotoxicity against Gossypium hirsutum (cotton) assessed as mortality per 10 acre; format: organism-based; conditions: in vivo
Ipomoea lacunosa [12] = experiment: Pre-emergence herbicidal activity against Ipomoea lacunosa assessed as mortality per 10 acre; format: functional
Zea mays [13] = experiment: (§4) Pre-emergence phytotoxicity against Zea mays (maize) assessed as mortality at 1.6 g a.i/10 a; format: organism-based; conditions: in vivo, other
Echinochloa crus-galli [14] = experiment: Pre-emergence herbicidal activity against Echinochloa crus-galli (barnyard grass) assessed as mortality per 10 acre; format: functional
Glycine max [15] = experiment: (§5) Pre-emergence phytotoxicity against Glycine max (soybean) assessed as mortality at 6.3 g a.i/10 a; format: organism-based; conditions: in vivo, other
Zea mays [16] = experiment: Post-emergence phytotoxicity against Zea mays (maize) assessed as mortality at 1.6 g a.i/10 a applied 11 days after germination as foliar spray; format: organism-based; conditions: in vivo, other, 264 h
[17] = (§6) Post-emergence phytotoxicity against Gossypium hirsutum (cotton) assessed as mortality at 1.6 g a.i/10 a applied 11 days after germination as foliar spray; format: organism-based; conditions: in vivo, 1.6 g a.i/10 a
Amaranthus retroflexus [18] = experiment: Pre-emergence herbicidal activity against Amaranthus retroflexus assessed as mortality per 10 acre; format: functional
Xanthium strumarium [19] = experiment: Post-emergence herbicidal activity against Xanthium strumarium (cocklebur) assessed as mortality per 10 acre; format: functional
Zea mays [20] = experiment: Pre-emergence phytotoxicity against Zea mays (maize) assessed as mortality at 6.3 g a.i/10 a; format: organism-based; conditions: in vivo, other
Abutilon theophrasti [21] = experiment: Post-emergence herbicidal activity against Abutilon theophrasti (velvetleaf) assessed as mortality at 6.3 g a.i/10 a applied 11 days after germination as foliar spray; format: functional; conditions: 264 h
Persicaria nodosa [22] = experiment: Post-emergence herbicidal activity against Persicaria nodosa assessed as mortality per 10 acre; format: functional
Gossypium hirsutum [23] = experiment: Pre-emergence phytotoxicity against Gossypium hirsutum (cotton) assessed as mortality per 10 acre; format: organism-based; conditions: in vivo
Amaranthus retroflexus [24] = experiment: Post-emergence herbicidal activity against Amaranthus retroflexus assessed as mortality per 10 acre; format: functional
Ipomoea lacunosa [25] = experiment: Post-emergence herbicidal activity against Ipomoea lacunosa assessed as mortality at 1.6 g a.i/10 a applied 11 days after germination as foliar spray; format: functional; conditions: 264 h
Persicaria nodosa [26] = experiment: Post-emergence herbicidal activity against Persicaria nodosa assessed as growth inhibition at 25 g a.i/10 a applied 11 days after germination as foliar spray; format: functional, organism-based
Amaranthus retroflexus [27] = experiment: Pre-emergence herbicidal activity against Amaranthus retroflexus assessed as growth inhibition at 25 g a.i/10 a; format: functional, organism-based
Gossypium hirsutum [28] = experiment: as §1; format: organism-based; conditions: in vivo, other, 264 h
Digitaria sanguinalis [29] = experiment: Pre-emergence herbicidal activity against Digitaria sanguinalis (hairy crabgrass) assessed as growth inhibition at 25 g a.i/10 a; format: functional, organism-based
Cyperus iria [30] = experiment: Post-emergence herbicidal activity against Cyperus iria assessed as growth inhibition at 25 g a.i/10 a applied 11 days after germination as foliar spray; format: functional, organism-based
Ipomoea lacunosa [31] = experiment: Pre-emergence herbicidal activity against Ipomoea lacunosa assessed as mortality at 6.3 g a.i/10 a; format: functional
Zea mays [32] = experiment: Post-emergence phytotoxicity against Zea mays (maize) assessed as mortality at 6.3 g a.i/10 a applied 11 days after germination as foliar spray; format: organism-based; conditions: in vivo, other, 264 h
[33] = as §3; format: organism-based; conditions: in vivo, 6.3 g a.i/10 a
Chenopodium album [34] = experiment: Pre-emergence herbicidal activity against Chenopodium album assessed as growth inhibition at 25 g a.i/10 a; format: functional, organism-based
Cyperus iria [35] = experiment: Pre-emergence herbicidal activity against Cyperus iria assessed as growth inhibition at 25 g a.i/10 a; format: functional, organism-based
Echinochloa crus-galli [36] = experiment: Post-emergence herbicidal activity against Echinochloa crus-galli (barnyard grass) assessed as growth inhibition at 25 g a.i/10 a applied 11 days after germination as foliar spray; format: functional, organism-based
Ipomoea lacunosa [37] = experiment: Pre-emergence herbicidal activity against Ipomoea lacunosa assessed as mortality at 1.6 g a.i/10 a; format: functional
Amaranthus retroflexus [38] = experiment: Post-emergence herbicidal activity against Amaranthus retroflexus assessed as growth inhibition at 25 g a.i/10 a applied 11 days after germination as foliar spray; format: functional, organism-based
[39] = as §4; format: organism-based; conditions: in vivo, 1.6 g a.i/10 a, read-out: mortality
Xanthium strumarium [40] = experiment: Pre-emergence herbicidal activity against Xanthium strumarium (cocklebur) assessed as mortality at 6.3 g a.i/10 a; format: functional
Persicaria nodosa [41] = experiment: Pre-emergence herbicidal activity against Persicaria nodosa assessed as growth inhibition at 25 g a.i/10 a; format: functional, organism-based
Abutilon theophrasti [42] = experiment: Pre-emergence herbicidal activity against Abutilon theophrasti (velvetleaf) assessed as mortality at 1.6 g a.i/10 a; format: functional; conditions: Abutilon theophrasti, pre-emergence
Echinochloa crus-galli [43] = experiment: Pre-emergence herbicidal activity against Echinochloa crus-galli (barnyard grass) assessed as growth inhibition at 25 g a.i/10 a; format: functional, organism-based
Gossypium hirsutum [44] = experiment: as §6; format: organism-based; conditions: in vivo, other, 264 h
Chenopodium album [45] = experiment: Post-emergence herbicidal activity against Chenopodium album assessed as growth inhibition at 25 g a.i/10 a applied 11 days after germination as foliar spray; format: functional, organism-based
Echinochloa crus-galli [46] = experiment: Pre-emergence herbicidal activity against Echinochloa crus-galli (barnyard grass) assessed as mortality at 1.6 g a.i/10 a; format: functional; conditions: Echinochloa crus-galli, pre-emergence
Echinochloa crus-galli [47] = experiment: Pre-emergence herbicidal activity against Echinochloa crus-galli (barnyard grass) assessed as mortality at 6.3 g a.i/10 a; format: functional; conditions: Echinochloa crus-galli, pre-emergence
Xanthium strumarium [48] = experiment: Post-emergence herbicidal activity against Xanthium strumarium (cocklebur) assessed as mortality at 1.6 g a.i/10 a applied 11 days after germination as foliar spray; format: functional; conditions: 264 h
Xanthium strumarium [49] = experiment: Pre-emergence herbicidal activity against Xanthium strumarium (cocklebur) assessed as mortality at 1.6 g a.i/10 a; format: functional
Digitaria sanguinalis [50] = experiment: Post-emergence herbicidal activity against Digitaria sanguinalis (hairy crabgrass) assessed as growth inhibition at 25 g a.i/10 a applied 11 days after germination as foliar spray; format: functional, organism-based
[51] = as §2; format: organism-based; conditions: in vivo, 1.6 g a.i/10 a, read-out: Activity
[52] = as §5; format: organism-based; conditions: in vivo, 6.3 g a.i/10 a, read-out: Activity
Echinochloa crus-galli [53] = experiment: Post-emergence herbicidal activity against Echinochloa crus-galli (barnyard grass) assessed as mortality at 6.3 g a.i/10 a applied 11 days after germination as foliar spray; format: functional; conditions: 264 h
[54] = Ipomoea lacunosa, pre-emergence
[55] = Xanthium strumarium, pre-emergence

COc1cc(OC)nc(Sc2cccc(Br)c2C(=O)O)n1
< 50%: Activity (Gossypium hirsutum [10])
active: ED90 (Ipomoea lacunosa [6]) | ED90 (Xanthium strumarium [19])
1.5 gAi: ED90 (Amaranthus retroflexus [18]) | ED90 (Persicaria nodosa [22]) | ED90 (Amaranthus retroflexus [24])
Non-toxic: Activity (Gossypium hirsutum [8])
inactive: ED90 (Persicaria nodosa [7])
< 5%: mortality at 264 h [2] | mortality at 264 h [17]
> 90%: mortality at 63 g/ha (Abutilon theophrasti [21])
Toxic: Activity (Glycine max [1]) | Activity (Glycine max [4]) | Activity (Glycine max [9]) | Activity (Zea mays [13]) | Activity (Glycine max [15]) | Activity (Zea mays [16]) | Activity (Zea mays [20])
50 gAi: ED20 (Gossypium hirsutum [11]) | ED20 (Gossypium hirsutum [23])
25 gAi: ED90 (Xanthium strumarium [3]) | ED90 (Echinochloa crus-galli [5]) | ED90 (Ipomoea lacunosa [12]) | ED90 (Echinochloa crus-galli [14])

COc1cc(OC)nc(Oc2cccc([N+](=O)[O-])c2C(=O)O)n1
< 5%: mortality at 16 g/ha (Ipomoea lacunosa [25]) | mortality at 63 g/ha (Ipomoea lacunosa [31]; [54]) | mortality ([33]; read-out: mortality) | mortality at 16 g/ha (Ipomoea lacunosa [37]; [54]) | mortality [39] | mortality at 63 g/ha (Xanthium strumarium [40]; [55]) | mortality at 16 g/ha (Abutilon theophrasti [42]) | mortality at 16 g/ha (Echinochloa crus-galli [46]) | mortality at 63 g/ha (Echinochloa crus-galli [47]) | mortality at 16 g/ha (Xanthium strumarium [48]) | mortality at 16 g/ha (Xanthium strumarium [49]; [55])
inactive: growth inhibition (GI) (Digitaria sanguinalis [29]) | growth inhibition (GI) (Echinochloa crus-galli [43]) | growth inhibition (GI) (Digitaria sanguinalis [50])
Non-toxic: Activity (Gossypium hirsutum [28]) | Activity (Glycine max [4]) | Activity (Glycine max [15]) | Activity (Zea mays [16]) | Activity (Gossypium hirsutum [44]) | Activity (Zea mays [20])
active: growth inhibition (GI) (Persicaria nodosa [26]) | growth inhibition (GI) (Amaranthus retroflexus [27]) | growth inhibition (GI) (Cyperus iria [30]) | growth inhibition (GI) (Chenopodium album [34]) | growth inhibition (GI) (Cyperus iria [35]) | growth inhibition (GI) (Echinochloa crus-galli [36]) | growth inhibition (GI) (Amaranthus retroflexus [38]) | growth inhibition (GI) (Persicaria nodosa [41]) | growth inhibition (GI) (Chenopodium album [45])
Toxic: Activity (Glycine max [1]) | Activity (Zea mays [32])

COc1cc(OC)nc(Sc2cccc(C(C)=O)c2C(=O)O)n1
Non-toxic: Activity (Glycine max [1]) | Activity (Gossypium hirsutum [28]) | Activity (Glycine max [9]) | Activity (Zea mays [13])
Toxic: Activity (Zea mays [16]) | Activity (Zea mays [20])
> 90%: mortality at 63 g/ha (Echinochloa crus-galli [53])
< 5%: mortality at 264 h [17]
<50%: Activity (Ipomoea lacunosa [31]) | Activity (Ipomoea lacunosa [37]) | Activity (Xanthium strumarium [40]) | Activity (Xanthium strumarium [49])
< 50%: mortality [51] | mortality ([33]; read-out: Activity) | Activity (Gossypium hirsutum [10]) | mortality [52]
